Test results: patent publication US9586952B2, “Polycyclic estrogen receptor modulators and uses thereof” (SERAGON PHARMACEUTICALS, INC., priority 2013, dated 2017)
pIC50: −log10 of the molar value.

Columns and labels:
ER-α = target: T1, ER-α (Homo sapiens, UniProt P03372); test: Breast Cancer Cell ER-α In Cell Western Assay (SP1); format: cell-based; conditions: MCF-7 cells, 4 or 24 hr post compound addition, SP1 antibody; for Emax: MCF7, read-out: ER-α In Cell Western Assay (SP1) Max Response; for DC50: read-out: ER-α In Cell Western Assay (SP1) IC50
T1 construct: endogenous in cells; host or cells: MCF-7
T1 sequence (P03372 1-595): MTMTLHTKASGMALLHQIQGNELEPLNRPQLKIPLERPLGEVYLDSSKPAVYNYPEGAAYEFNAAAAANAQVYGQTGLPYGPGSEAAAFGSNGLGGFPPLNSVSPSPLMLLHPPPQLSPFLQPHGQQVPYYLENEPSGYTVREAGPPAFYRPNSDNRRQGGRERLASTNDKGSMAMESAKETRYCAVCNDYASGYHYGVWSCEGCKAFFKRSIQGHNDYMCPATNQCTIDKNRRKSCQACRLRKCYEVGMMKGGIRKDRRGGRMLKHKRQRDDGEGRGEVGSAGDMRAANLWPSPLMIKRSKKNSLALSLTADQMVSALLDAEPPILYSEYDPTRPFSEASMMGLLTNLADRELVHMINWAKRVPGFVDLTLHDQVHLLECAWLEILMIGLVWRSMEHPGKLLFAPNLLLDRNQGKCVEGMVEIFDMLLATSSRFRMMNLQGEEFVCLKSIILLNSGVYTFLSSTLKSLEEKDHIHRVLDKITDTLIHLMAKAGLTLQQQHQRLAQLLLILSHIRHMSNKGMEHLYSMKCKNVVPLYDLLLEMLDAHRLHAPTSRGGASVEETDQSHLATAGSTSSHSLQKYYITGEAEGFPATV
Summary of the method: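 MCF-7 cells in RPMI with 10% charcoal-stripped FBS received an eleven-point semilog series, 0.3-0.000003 μM final, for 4 or 24 hr. After fixation, ER-α stained with SP1 antibody and IRDye 800 CW, DNA with DRAQ5; % ER = 800/700 nm intensity ratio relative to untreated cells.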

MCF-7 cells = test: MCF7 Viability Assay (Breast Cancer Cell Viability Assay); format: cell-based; conditions: 5 days' compound exposure, CellTiter-Glo; for pIC50: Homo sapiens, MCF7, 120 h
Summary of the method: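 Cells (320 per well, RPMI with 10% FBS and 20 mM HEPES) adhered overnight, then were exposed 5 days to an eleven-point semilog compound series, 0.3-0.000003 μM final. Viability read by CellTiter-Glo luminescence, background-subtracted, expressed as % of untreated cells.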

Emax (ER-α) [%]	DC50 (ER-α) [nM]	pIC50 (MCF-7 cells)	SMILES	MCF7 Viability Assay Max Response (MCF-7 cells)
≥ 40	≤ 100	≥ 7.00	COc1ccc(/C(=C(\c2ccc(/C=C/C(=O)O)cc2)c2ccc(-c3cncs3)cc2)C2CCC2)c(Cl)c1 [Example 53, (E)-3-(4-((E)-2-(2-Chloro-4-methoxyphenyl)-2-cyclobutyl-1-(4-(thiazol-5-yl)phenyl)vinyl)phenyl)acrylic acid]	++ (++ = a single % value ≧ 40%)
≥ 40	≤ 100	≥ 7.00	N#Cc1cc(Cl)ccc1/C(=C(\c1ccc(/C=C/C(=O)O)cc1)c1ccc(-c2cncs2)cc1)C1CCC1 [Example 62, (E)-3-(4-((E)-2-(4-Chloro-2-cyanophenyl)-2-cyclobutyl-1-(4-(thiazol-5-yl)phenyl)vinyl)phenyl)acrylic acid]	++ (++ = a single % value ≧ 40%)
≥ 40	≤ 100	≥ 7.00	O=C(O)/C=C/c1ccc(/C(=C(\c2ccc(C(F)(F)F)cc2Cl)C2CCC2)c2ccc(-c3cn[nH]c3)cc2)cc1 [Example 55, (E)-3-(4-((E)-1-(4-(1H-Pyrazol-4-yl)phenyl)-2-(2-chloro-4-(trifluoromethyl)phenyl)-2-cyclobutylvinyl)phenyl)acrylic acid]	++ (++ = a single % value ≧ 40%)
≥ 40	≤ 100	≥ 7.00	CC/C(=C(/c1ccc(/C=C/C(=O)O)cc1)c1ccc(-c2cncs2)cc1)c1ccc(F)cc1Cl [Example 2, (E)-3-(4-((E)-2-(2-Chloro-4-fluorophenyl)-1-(4-(thiazol-5-yl)phenyl)but-1-en-1-yl)phenyl)acrylic acid]	++ (++ = a single % value ≧ 40%)
≥ 40	≤ 100	≥ 7.00	N#Cc1ccc(/C(=C(\c2ccc(/C=C/C(=O)O)cc2)c2ccc(-c3cncs3)cc2)C2CCC2)c(Cl)c1 [Example 5, (E)-3-(4-((E)-2-(2-Chloro-4-cyanophenyl)-2-cyclobutyl-1-(4-(thiazol-5-yl)phenyl)vinyl)phenyl)acrylic acid]	++ (++ = a single % value ≧ 40%)
≥ 40	≤ 100	≥ 7.00	O=C(O)/C=C/c1ccc(/C(=C(\c2ncc(C(F)(F)F)cc2Cl)C2CCC2)c2ccc(-c3cncs3)cc2)cc1 [Example 59, (E)-3-(4-((E)-2-(3-Chloro-5-(trifluoromethyl)pyridin-2-yl)-2-cyclobutyl-1-(4-(thiazol-5-yl)phenyl)vinyl)phenyl)acrylic acid]	++ (++ = a single % value ≧ 40%)
≥ 40	≤ 100	≥ 7.00	COc1cc(C)c(/C(=C(\c2ccc(/C=C/C(=O)O)cc2)c2ccc(-c3cn[nH]c3)cc2)C2CCC2)cn1 [Example 61, (E)-3-(4-((E)-1-(4-(1H-Pyrazol-4-yl)phenyl)-2-cyclobutyl-2-(6-methoxy-4-methylpyridin-3-yl)vinyl)phenyl)acrylic acid]	++ (++ = a single % value ≧ 40%)
≥ 40	≤ 100	≥ 7.00	N#Cc1cc(Cl)ccc1/C(=C(\c1ccc(/C=C/C(=O)O)cc1)c1ccc(-c2cn[nH]c2)cc1)C1CCC1 [Example 44, (E)-3-(4-((E)-1-(4-(1H-Pyrazol-4-yl)phenyl)-2-(4-chloro-2-cyanophenyl)-2-cyclobutylvinyl)phenyl)acrylic acid]	++ (++ = a single % value ≧ 40%)
≥ 40	≤ 100	≥ 7.00	CC/C(=C(/c1ccc(/C=C/C(=O)O)cc1)c1ccc(-c2cncs2)cc1)c1ccncc1Cl [Example 28, (E)-3-(4-((E)-2-(3-Chloropyridin-4-yl)-1-(4-(thiazol-5-yl)phenyl)but-1-en-1-yl)phenyl)acrylic acid]	++ (++ = a single % value ≧ 40%)

Second part, the compound before the results:

SMILES	Emax (ER-α) [%]	DC50 (ER-α) [nM]	pIC50 (MCF-7 cells)	MCF7 Viability Assay Max Response (MCF-7 cells)
O=C(O)/C=C/c1ccc(/C(=C(\c2ccccc2)C2CCC2)c2cccc(-c3cn[nH]c3)c2)cc1 [Example 26, (E)-3-(4-((E)-1-(3-(1H-Pyrazol-4-yl)phenyl)-2-cyclobutyl-2-phenylvinyl)phenyl)acrylic acid]	≥ 40	> 100	< 7.00	+ (+ = a single % value < 40%)
CC/C(=C(/c1ccc(/C=C/C(=O)O)cc1)c1ccc(-c2nccs2)cc1)c1ccccc1 [Example 8, (E)-3-(4-((E)-2-Phenyl-1-(4-(thiazol-2-yl)phenyl)but-1-en-1-yl)phenyl)acrylic acid]	≥ 40	≤ 100	< 7.00	++ (++ = a single % value ≧ 40%)
CC/C(=C(/c1ccc(/C=C/C(=O)O)cc1)c1ccc(-c2cncs2)cc1F)c1ccccc1 [Example 20, (E)-3-(4-((E)-1-(2-Fluoro-4-(thiazol-5-yl)phenyl)-2-phenylbut-1-en-1-yl)phenyl)acrylic acid]	≥ 40	≤ 100	≥ 7.00	++ (++ = a single % value ≧ 40%)
N#Cc1cc(Cl)ccc1/C(=C(\c1ccc(/C=C/C(=O)O)cc1)c1ccc(N2CCOCC2)cc1)C1CCC1 [Example 46, (E)-3-(4-((E)-2-(4-Chloro-2-cyanophenyl)-2-cyclobutyl-1-(4-morpholinophenyl)vinyl)phenyl)acrylic acid]	≥ 40	≤ 100	≥ 7.00	++ (++ = a single % value ≧ 40%)
CC/C(=C(/c1ccc(/C=C/C(=O)O)cc1)c1cccc(-c2cscn2)c1)c1ccccc1 [Example 12, (E)-3-(4-((E)-2-Phenyl-1-(3-(thiazol-4-yl)phenyl)but-1-en-1-yl)phenyl)acrylic acid]	< 40	> 100	< 7.00	+ (+ = a single % value < 40%)
N#Cc1cc(N2CCOCC2)ccc1/C(=C(/c1ccc(F)cc1Cl)C1CCC1)c1ccc(/C=C/C(=O)O)cc1 [Example 60, (E)-3-(4-((E)-2-(2-Chloro-4-fluorophenyl)-1-(2-cyano-4-morpholinophenyl)-2-cyclobutylvinyl)phenyl)acrylic acid]	≥ 40	≤ 100	≥ 7.00	++ (++ = a single % value ≧ 40%)
CC/C(=C(/c1ccc(/C=C/C(=O)O)cc1)c1ccc(-c2cscn2)cc1)c1ccccc1 [Example 10, (E)-3-(4-((E)-2-Phenyl-1-(4-(thiazol-4-yl)phenyl)but-1-en-1-yl)phenyl)acrylic acid]	≥ 40	≤ 100	< 7.00	++ (++ = a single % value ≧ 40%)
O=C(O)/C=C/c1ccc(/C(=C(\c2ccc(C(F)(F)F)cc2Cl)C2CCC2)c2ccc(N3CCOCC3)cc2)cc1 [Example 48, (E)-3-(4-((E)-2-(2-Chloro-4-(trifluoromethyl)phenyl)-2-cyclobutyl-1-(4-morpholinophenyl)vinyl)phenyl)acrylic acid]	≥ 40	≤ 100	≥ 7.00	++ (++ = a single % value ≧ 40%)
CC/C(=C(/c1ccc(/C=C/C(=O)O)cc1)c1ccc(-c2ccn[nH]2)cc1)c1ccccc1 [Example 6, (E)-3-(4-((E)-1-(4-(1H-Pyrazol-5-yl)phenyl)-2-phenylbut-1-en-1-yl)phenyl)acrylic acid]	≥ 40	≤ 100	< 7.00	++ (++ = a single % value ≧ 40%)
N#Cc1ccc(/C(=C(\c2ccc(/C=C/C(=O)O)cc2)c2ccc(N3CCOCC3)cc2)C2CCC2)c(Cl)c1 [Example 45, (E)-3-(4-((E)-2-(2-Chloro-4-cyanophenyl)-2-cyclobutyl-1-(4-morpholinophenyl)vinyl)phenyl)acrylic acid]	≥ 40	≤ 100	≥ 7.00	++ (++ = a single % value ≧ 40%)
